{
  "source": "patent US8808722B2",
  "about": "“Stable antiseptic compositions and methods” (3M Innovative Properties Company, priority 2010, dated 2014)",
  "origin": "cited, not measured here",
  "settings": "at 25° C.",
  "data": [
    {"compound": "II", "note": "[elemental iodine, iodine]", "values": [
      {"measurement": "solubility in water", "result": 0.03, "unit": "wt-%"}
    ]}
  ]
}
